Patent US12053506B2, “Romo1-derived antimicrobial peptides and variants thereof” (priority 2019, dated 2024)
No end group written: not given here.

How the values were obtained:
[1] = test system: methicillin-resistant Staphylococcus aureus (ATCC 33591); settings: for MBC value (μg/ml) against methicillin-resistant Staphylococcus aureus: ATCC 33591, 4 h; for MBC MRSA: Tables 11-15, no unit printed
Description: (§1) First, each of Pseudomonas aeruginosa (ATCC 27853) and Staphylococcus aureus (ATCC 29213) was cultured in 3% (w/v) TSB (Tryptic Soy Broth) liquid medium at 37° C. and 200 rpm for 4 hours, and then further cultured under the same conditions for 3 hours to a concentration of 5×10^6 CFU/ml. Strain solutions were prepared by diluting each of the further cultured strains with SP (sodium phosphate; 10 mM sodium phosphate, 1% TSB) buffer to a final concentration of 2×10^5 CFU/ml.
(§2) Then, each peptide at varying concentrations (0 μg/ml to 300 μg/ml) was dispensed into each well of a 96-well microplate, and 100 μl (1×10^5 CFU/ml) of each of the prepared strain solutions was added thereto, mixed therewith, and allowed to react with the peptide in an incubator at 37° C. for 1 hour.
(§3) In addition, 30 g/L of TS (tryptic soy) and 15 g/L of agar were dissolved in distilled water and sterilized, and then 25 ml of the solution was poured onto a 100 mm round plate and solidified at room temperature for one day or more, thereby preparing a TS agar plate. 10 μl of each reaction solution of the peptide and the strain was plated on the TS agar plate at a constant size, and incubated in an incubator at 37° C. for 18 hours, and then colony formation on the plate was checked.
(§4) Specifically, each type of bacteria was cultured in 3% (w/v) TSB (Tryptic Soy Broth) liquid medium at 37° C. and 200 rpm for 4 hours, and then further cultured under the same conditions for 3 hours to a concentration of 5×10^6 CFU/ml. Strain solutions were prepared by diluting each of the […] of 2×10^5 CFU/ml.
as §2, with “Then, the KU-5878” for “Then, each”
(§5) In addition, 10 μl of each reaction solution of the peptide and the strain was plated on the TS agar plate at a constant size, and incubated in an incubator at 37° C. for 18 hours, and then colony formation on the plate was checked.

[2] = test system: multidrug-resistant Pseudomonas aeruginosa; settings: 4 h
Description: as §1, §2, §3, §4
as §2, with “Then, the KU-5878” for “Then, each”
as §5
Meanwhile, the multidrug-resistant Pseudomonas aeruginosa, multidrug-resistant Acinetobacter and multidrug-resistant Klebsiella in Table 2 below were bacteria isolated from patients at Korea University Anam Hospital. […] Then, these bacteria were used in the experiment.

CRPA = experiment: MBC, evaluation of antibacterial activities of KU-5878 variants; type: cell-based; settings: Tables 11-15, no unit printed
Description: Variants were prepared by deleting one amino acid from the amino acid sequence of KU-5878 (SEQ ID NO: 13), and the antibacterial activities thereof were evaluated.
Variants were prepared by deleting two or more amino acids from the amino acid sequence of KU-5878 (SEQ ID NO: 13), and the antibacterial activities thereof were evaluated.
One amino acid in the amino acid sequence of KU-5878 (SEQ ID NO: 13) was substituted, and the antibacterial activities of the peptides were evaluated.
Substitutions of Q62K, S63K and T66K were sequentially added to the amino acid sequence of KU-5878-T59K, and the antibacterial activities of the peptides were evaluated.
An amino acid repeat sequence was added to the C-terminus of KU-5878, and the antibacterial activities of the peptides were evaluated. According to Table 15 below, when the R (arginine) repeat sequence or K (lysine) sequence was added to the C-terminus of KU-5878, the antibacterial activity of the peptide increased.

[3] = test system: Pseudomonas aeruginosa (ATCC 27853); type: cell-based; settings: for MBC value (μg/ml) against Pseudomonas aeruginosa: ATCC 27853, 1 h; for MBC Pseudomonas aeruginosa: Tables 11-15, no unit printed
Excerpt: (§6) Romo1 protein comprises two α-helices. The present inventors synthesized the α-helix 2 region having both hydrophilicity and hydrophobicity, and evaluated the antibacterial activity thereof using minimum bactericidal concentration (MBC) assay. The α-helix 2 region was named KU-5279 (the 52-79 amino acid region of Romo1 protein). Then, in order to identify peptides that are beneficial for human application and have excellent antibacterial activity, the present inventors synthesized several peptides comprising a sequence of contiguous amino acids starting at any amino acid selected from the 52-79 amino acid region of Romo1 protein, and comparatively evaluated the antibacterial activities of the peptides by minimum bactericidal concentration assay (See Table 1 below for information on each peptide). Evaluation of the antibacterial activity of each peptide by minimum bactericidal concentration assay was specifically performed as follows. First, each of Pseudomonas aeruginosa (ATCC 27853) and Staphylococcus aureus (ATCC 29213) was cultured in 3% (w/v) TSB (Tryptic Soy Broth) liquid medium at 37° C. and 200 rpm for 4 hours, and then further cultured under the same conditions for 3 hours to a concentration of 5×10^6 CFU/ml. Strain solutions were prepared by diluting each of the further cultured strains with SP (sodium phosphate; 10 mM sodium phosphate, 1% TSB) buffer to a final concentration of 2×10^5 CFU/ml. Then, each peptide at varying concentrations (0 μg/ml to 300 μg/ml) was dispensed into each well of a 96-well microplate, and 100 μl (1×10^5 CFU/ml) of each of the prepared strain solutions was added thereto, mixed therewith, and allowed to react with the peptide in an incubator at 37° C. for 1 hour. In addition, 30 g/L of TS (tryptic soy) and 15 g/L of agar were dissolved in distilled water and sterilized, and then 25 ml of the solution was poured onto a 100 mm round plate and solidified at room temperature for one day or more, thereby preparing a TS agar plate. 10 μl of each reaction solution of the peptide and the strain was plated on the TS agar plate at a constant size, and incubated in an incubator at 37° C. for 18 hours, and then colony formation on the plate was checked. The minimum bactericidal concentration was defined as the minimum concentration of the peptide at which no colony was formed, and the experimental results are shown in Table 1 below.

[4] = test system: Staphylococcus aureus (ATCC 29213); type: cell-based; settings: for MBC value (μg/ml) against Staphylococcus aureus: ATCC 29213, 1 h; for MBC Staphylococcus aureus: Tables 11-15, no unit printed
Excerpt: as §6

KRMMQSGGTFGTFMAIGMGIR [KU-5878-T59R]
MBC value (μg/ml) against methicillin-resistant Staphylococcus aureus [1]: 30 µg/mL
MBC MRSA [1]: 30 mg/L
MBC value (μg/ml) against multidrug-resistant Pseudomonas aeruginosa [2]: 35 µg/mL
MBC CRPA (CRPA): 30 mg/L
MBC value (μg/ml) against Pseudomonas aeruginosa [3]: 30 µg/mL
MBC Pseudomonas aeruginosa [3]: 30 mg/L
MBC value (μg/ml) against Staphylococcus aureus [4]: 25 µg/mL
MBC Staphylococcus aureus [4]: 25 mg/L

KKMMKKGGTFGTFMAIGMGIR [KU-5878-K3]
MBC value (μg/ml) against methicillin-resistant Staphylococcus aureus [1]: 5 µg/mL
MBC MRSA [1]: 5 mg/L
MBC value (μg/ml) against multidrug-resistant Pseudomonas aeruginosa [2]: 4 µg/mL
MBC CRPA (CRPA): 4 mg/L
MBC value (μg/ml) against Pseudomonas aeruginosa [3]: 4 µg/mL
MBC Pseudomonas aeruginosa [3]: 4 mg/L
MBC value (μg/ml) against Staphylococcus aureus [4]: 4 µg/mL
MBC Staphylococcus aureus [4]: 4 mg/L

KKMMQSGGTFGTFMAIGMGIR [KU-5878-T59K]
MBC value (μg/ml) against methicillin-resistant Staphylococcus aureus [1]: 45 µg/mL
MBC MRSA [1]: 50 mg/L
MBC value (μg/ml) against multidrug-resistant Pseudomonas aeruginosa [2]: 45 µg/mL
MBC CRPA (CRPA): 50 mg/L
MBC value (μg/ml) against Pseudomonas aeruginosa [3]: 50 µg/mL
MBC Pseudomonas aeruginosa [3]: 50 mg/L
MBC value (μg/ml) against Staphylococcus aureus [4]: 40 µg/mL
MBC Staphylococcus aureus [4]: 40 mg/L

RTMMQSGGTFGTFMAIGMGIR [KU-5878-K58R]
MBC value (μg/ml) against methicillin-resistant Staphylococcus aureus [1]: 130 µg/mL
MBC MRSA [1]: 120 mg/L
MBC value (μg/ml) against multidrug-resistant Pseudomonas aeruginosa [2]: 120 µg/mL
MBC CRPA (CRPA): 120 mg/L
MBC value (μg/ml) against Pseudomonas aeruginosa [3]: 120 µg/mL
MBC Pseudomonas aeruginosa [3]: 120 mg/L
MBC value (μg/ml) against Staphylococcus aureus [4]: 120 µg/mL
MBC Staphylococcus aureus [4]: 120 mg/L

KTMMQSGGTFGTFMAWGMGIR [KU-5878-I73W]
MBC MRSA [1]: > 300 mg/L
MBC CRPA (CRPA): 300 mg/L
MBC value (μg/ml) against Pseudomonas aeruginosa [3]: 300 µg/mL
MBC Pseudomonas aeruginosa [3]: 300 mg/L
MBC value (μg/ml) against Staphylococcus aureus [4]: 300 µg/mL
MBC Staphylococcus aureus [4]: 300 mg/L

KTMMQSGGTAGTFMAIGMGIR [KU-5878-F67A]
MBC MRSA [1]: > 300 mg/L
MBC CRPA (CRPA): > 300 mg/L
MBC value (μg/ml) against Pseudomonas aeruginosa [3]: >300 µg/mL
MBC Pseudomonas aeruginosa [3]: > 300 mg/L
MBC value (μg/ml) against Staphylococcus aureus [4]: >300 µg/mL
MBC Staphylococcus aureus [4]: > 300 mg/L

KTMMQSGGTFGTFMAIGMGIRQ [Peptide 5878-Q]
MBC MRSA [1]: 180 mg/L
MBC CRPA (CRPA): 180 mg/L
MBC Pseudomonas aeruginosa [3]: 150 mg/L
MBC Staphylococcus aureus [4]: 180 mg/L

KTMMQSGGTFGTFMAAGMGIR [KU-5878-I73A]
MBC MRSA [1]: > 300 mg/L
MBC CRPA (CRPA): > 300 mg/L
MBC value (μg/ml) against Pseudomonas aeruginosa [3]: >300 µg/mL
MBC Pseudomonas aeruginosa [3]: > 300 mg/L
MBC value (μg/ml) against Staphylococcus aureus [4]: >300 µg/mL
MBC Staphylococcus aureus [4]: > 300 mg/L

KTMMQSGGTFG-FMAIGMGIR [Peptide 5878-d69T]
MBC MRSA [1]: 140 mg/L
MBC CRPA (CRPA): 140 mg/L
MBC Pseudomonas aeruginosa [3]: 120 mg/L
MBC Staphylococcus aureus [4]: 120 mg/L

KTMMQSGGTF-TFMAIGMGIR [Peptide 5878-d68G]
MBC MRSA [1]: 25 mg/L
MBC CRPA (CRPA): 18 mg/L
MBC Pseudomonas aeruginosa [3]: 25 mg/L
MBC Staphylococcus aureus [4]: 20 mg/L

KTMMQSGGTFGAFMAIGMGIR [KU-5878-T69A]
MBC MRSA [1]: 300 mg/L
MBC CRPA (CRPA): 300 mg/L
MBC Pseudomonas aeruginosa [3]: 300 mg/L
MBC Staphylococcus aureus [4]: 300 mg/L

KTMMQSGG-FGTFMAIGMGIR [Peptide 5878-d66T]
MBC MRSA [1]: 90 mg/L
MBC CRPA (CRPA): 100 mg/L
MBC Pseudomonas aeruginosa [3]: 90 mg/L
MBC Staphylococcus aureus [4]: 90 mg/L

KTMMQSGGT-GTFMAIGMGIR [Peptide 5878-d67F]
MBC MRSA [1]: 200 mg/L
MBC CRPA (CRPA): 200 mg/L
MBC Pseudomonas aeruginosa [3]: 200 mg/L
MBC Staphylococcus aureus [4]: 200 mg/L

KTMMQ-GGTFGTFMAIGMGIR [Peptide 5878-d63S]
MBC MRSA [1]: 200 mg/L
MBC CRPA (CRPA): 200 mg/L
MBC Pseudomonas aeruginosa [3]: 200 mg/L
MBC Staphylococcus aureus [4]: 200 mg/L

KTMMQHGGTFGTFMAIGMGIR [KU-5878-S63H]
MBC MRSA [1]: 110 mg/L
MBC CRPA (CRPA): 100 mg/L
MBC Pseudomonas aeruginosa [3]: 100 mg/L
MBC Staphylococcus aureus [4]: 100 mg/L

KTMMQSGGTFGTFMAIG-GIR [Peptide 5878-d75M]
MBC MRSA [1]: 110 mg/L
MBC CRPA (CRPA): 100 mg/L
MBC Pseudomonas aeruginosa [3]: 100 mg/L
MBC Staphylococcus aureus [4]: 100 mg/L
